# How the values were obtained:
# osteoporosis rats [1] = assay: Bone phosphorus level, osteoporosis rats (Example 24); format: in vivo; conditions: male rats; CSO low-dose (3.8 mg/kg)+calcium acetate 158 mg/kg; compared with model group, P<0.05, P<0.01
# Protocol: (§1) Ninety female SD rats weighing 200-220 g were used. The rats adapted to the environment for 3 d. Fasting but freely taking water for 24 h before surgery. Rats were injected intraperitoneally with 3% chloral hydrate and anesthetised. Ten […] were used as the sham-operated group with longitudinal incisions on the skin and muscle from both sides of the lumbar and dorsal spine without removing the ovaries. For the other animals, longitudinal incisions were made from both sides of the lumbar and dorsal spine to cut the skin and muscle, and both ovaries were removed, and the wounds were sutured. All animals were intramuscular injected with penicillin for 3 consecutive days after operation. (Male rats were operated with the same method to remove testicles).
# (§2) On the second day after surgery, ovariectomized rats were randomly divided into 8 groups with […] in each group:
# (§3) On the second day after surgery, rats were given by intragastric administration with an administration volume of 0.2 mL/100 g. The sham-operated group and model group were given in the same volume of normal saline. […]
# (§4) The rats were sacrificed, and the femur on both sides was separated. The right femur was taken and measured for the following indexes: bone weight coefficient (g/100 g body weight), bone density, ash level, bone calcium or bone phosphorus, bone hydroxyproline, HE pathology. […]
# osteoporosis rats [2] = assay: Femoral ash level, osteoporosis rats (Example 24); format: in vivo; conditions: male rats; CSO high, medium and low dose (15, 7.5, 3.8 mg/kg)+calcium acetate 158 mg/kg; compared with model group, P<0.01, P<0.05
# Protocol: as §1, §2, §3, §4
smiles,measurement,setting,value
"CC(=O)[O-].CC(=O)[O-].[Ca+2] [Ca, Calcium acetate]",bone phosphorus level,osteoporosis rats [1],significantly increased
same,level of femoral ashes,osteoporosis rats [2],significantly increased

# Source: patent US12624128B2, “Low molecular weight chondroitin sulfate, composition, preparation method and use thereof” (NANJING HANXIN PHARMACEUTICAL TECHNOLOGY CO., LTD., priority 2019, dated 2026)
